Assay results as given in article PMC6362038, “Secondary structures and cell-penetrating abilities of arginine-rich peptide foldamers” (Scientific Reports, 2019).
Numbered stars: 1 amine (or outer) side, 2 acyl side, 3 side chain; on linkers, the order of the positions; unused ones are H or OH. Square brackets hold non-standard residues; d marks the D form. Peptide text beside a SMILES is read from it. * marks the point of attachment. 5FAM = O=C1OC2(c3ccc(O)cc3Oc3cc(O)ccc32)c2ccc(C(=O)*)cc21; X1 = CO[C@H]1CC(N[*:1])(C(=O)[*:2])C[C@@H]1OC; αMeL = CC(C)C[C@](C)(N)C(=O)O; Ac5c = NC1(C(=O)O)CCCC1

Tests used:
[1] = Resistance to protease digestion with trypsin; assay type: in vitro ADME; conditions: 10 µM peptide in 2.5 × 10^−6 w/v% trypsin/PBS, 37 °C, RP-HPLC, α-CHCA internal standard, read-out: intact peptide after incubation with trypsin
Excerpt: (§1) Next, we examined the stability of peptides against protease digestion using trypsin (Fig. 4a) and pronase (Fig. 4b). One of the advantages of peptide foldamers containing dAAs is their high resistance to degradation by proteases[38]–[40]. Trypsin is a serine protease that cleaves amide bonds at the C terminus of cationic amino acids such as Arg and lysine. Pronase is a non-specific protease mixture produced in the culture supernatant of Streptomyces griseus. Ac5c, Ac5c^dOM, (αMe)Leu, and Leu peptides were incubated with trypsin or pronase for 1, 2, and 4 h, and then rate of intact peptide was evaluated by RP-HPLC using α-cyano-4-hydroxycinnamic acid (α-CHCA) as an internal standard. Leu peptide was promptly degraded by both trypsin and pronase, and reached 0% intact peptide after 4 h incubation in a similar manner to Arg peptide reported previously[24],[25]. On the other hand, approximately 80% of Ac5c, Ac5c^dOM, and (αMe)Leu peptides remained intact even after 4 h incubation. Introduction of dAAs into peptides markedly elevated resistance to protease digestion, whether or not peptides formed stable helical structures. In other words, peptides composed of only natural α-amino acids were easily degraded by proteases independently of their peptide secondary structures.
(§2) One-hundred microliters of peptide solution (10 µM) in 2.5 × 10^−6 w/v% trypsin or pronase/phosphate buffer saline (PBS) was incubated at 37 °C for 0, 1, 2, and 4 h. After each incubation time, 250 µL of 1% TFA/PBS solution was added to inactivate the proteases, and 50 µL of 1/2 diluted saturated α-CHCA solution was added as an internal standard, followed by HPLC analysis, which was performed using the above-mentioned conditions.

[2] = Resistance to protease digestion with pronase; assay type: in vitro ADME, Streptomyces griseus; conditions: 10 µM peptide in 2.5 × 10^−6 w/v% pronase/PBS, 37 °C, RP-HPLC, α-CHCA internal standard, read-out: intact peptide after incubation with pronase
Excerpt: as §1, §2

HeLa cells = experiment: Cellular uptake of CF-labeled peptides into HeLa cells (flow cytometry); assay type: cell-based; conditions: for cellular uptake, course over incubation time: 1 µM peptide, 2, 6 and 24 h, heparin wash, trypsinized, flow cytometry fluorescence, mean of n = 3; for cellular uptake, course over incubation time / cellular uptake compared with Arg peptide: DMEM 10% FBS; for cellular uptake, rank among the peptides containing dAAs / cellular uptake compared with Arg peptide: 1 µM peptide, flow cytometry, n = 3; for cellular uptake, rank among the peptides containing dAAs: 2-24 h; for cellular uptake compared with Arg peptide: 24 h
Description: (§3) Cellular uptake of peptides was assessed against HeLa (Fig. 5a) and CHO-K1 cells (Fig. 5b) at a concentration of 1 µM and various incubation times (2, 6, and 24 h). […] Not only stabilities against protease digestion but also other factors might contribute to prolongation of the cell-penetrating ability of peptides. […] The number of Arg residues in Arg-rich peptides is very important for their cell-penetrating ability, and six Arg are not enough. […] Substitution of Arg in Arg peptide with Ac5c, Ac5c^dOM, or (αMe)Leu positively affected its cell-penetrating ability compared with Aib. In comparison, among the peptides containing dAAs, (αMe)Leu peptide was the best for HeLa cell, Ac5c peptide was the best for CHO-K1 cell, and Ac5c^dOM peptide was the worst for both cell types (Fig. 5). Although the best peptides were different depending on cell type, the worst peptide was same for both cell types. […] Taken together, a stable helical structure by introducing dAAs into Arg-rich peptide enhanced their cell-penetrating abilities.
(§4) HeLa or CHO-K1 cells were seeded on 24-well culture plates (100,000 cells/well) and incubated in 400 µL of DMEM containing 10% FBS. The medium was then replaced with fresh medium, and a peptide solution was added to each well at a concentration of 1 µM. After each incubation time, the medium was removed and cells were washed with ice-cold PBS with heparin (20 units/mL) and trypsinized. After the addition of medium containing 10% FBS, fluorescence intensity was detected and acquired using an On-chip Flow (On-chip Biotechnologies Co., Ltd, Tokyo, Japan). The results are presented as a mean and standard deviation obtained from 3 samples.

CHO-K1 cells = experiment: Cellular uptake of CF-labeled peptides into CHO-K1 cells (flow cytometry); assay type: cell-based; conditions: n = 3; for cellular uptake, course over incubation time: CHO-K1, 1 µM peptide, 2, 6 and 24 h, compared with peptides of only natural α-amino acids; for cellular uptake compared with Arg peptide / cellular uptake, rank among the peptides containing dAAs: CHO-K1, 1 µM peptide; for cellular uptake compared with Arg peptide: DMEM 10% FBS; for cellular uptake, rank among the peptides containing dAAs: 2-24 h
Description: as §3, §4

Row | Structure (SMILES) | remaining at 4 h, 10 µM [1] [%] | remaining at 4 h, 10 µM [2] [%] | cellular uptake, course over incubation time (HeLa cells) | cellular uptake, rank among the peptides containing dAAs (HeLa cells) | cellular uptake compared with Arg peptide (HeLa cells) | cellular uptake, course over incubation time (CHO-K1 cells) | cellular uptake compared with Arg peptide (CHO-K1 cells; 6 h) | cellular uptake compared with Arg peptide (CHO-K1 cells; 24 h) | cellular uptake, rank among the peptides containing dAAs (CHO-K1 cells)
1 | CC(C)C[C@](C)(NC(=O)[C@H](CCCNC(=N)N)NC(=O)[C@H](CCCNC(=N)N)NC(=O)[C@](C)(CC(C)C)NC(=O)[C@H](CCCNC(=N)N)NC(=O)[C@H](CCCNC(=N)N)NC(=O)[C@](C)(CC(C)C)NC(=O)[C@H](CCCNC(=N)N)NC(=O)[C@H](CCCNC(=N)N)NC(=O)CNC(=O)c1ccc2c(c1)C(=O)OC21c2ccc(O)cc2Oc2cc(O)ccc21)C(N)=O [(αMe)Leu peptide] (5FAM-GRR[αMeL]RR[αMeL]RR[αMeL]-NH2) | ~80 | ~80 | increased cellular uptake from 2 to 6 h incubations and this was maintained after 24 h incubation | the best | higher than that of Arg peptide | prolonged cell-penetrating ability | higher than that of Arg peptide | higher than that of Arg peptide | 
2 | CO[C@H]1CC(NC(=O)[C@H](CCCNC(=N)N)NC(=O)[C@H](CCCNC(=N)N)NC(=O)C2(NC(=O)[C@H](CCCNC(=N)N)NC(=O)[C@H](CCCNC(=N)N)NC(=O)C3(NC(=O)[C@H](CCCNC(=N)N)NC(=O)[C@H](CCCNC(=N)N)NC(=O)CNC(=O)c4ccc5c(c4)C(=O)OC54c5ccc(O)cc5Oc5cc(O)ccc54)C[C@H](OC)[C@@H](OC)C3)C[C@H](OC)[C@@H](OC)C2)(C(N)=O)C[C@@H]1OC [Ac5c^dOM peptide] (5FAM-GRR[X1]RR[X1]RR[X1]-NH2) | ~80 | ~80 | increased up to 24 h | the worst | higher than that of Arg peptide | prolonged cell-penetrating ability |  | higher than that of Arg peptide | the worst
3 | N=C(N)NCCC[C@H](NC(=O)CNC(=O)c1ccc2c(c1)C(=O)OC21c2ccc(O)cc2Oc2cc(O)ccc21)C(=O)N[C@@H](CCCNC(=N)N)C(=O)NC1(C(=O)N[C@@H](CCCNC(=N)N)C(=O)N[C@@H](CCCNC(=N)N)C(=O)NC2(C(=O)N[C@@H](CCCNC(=N)N)C(=O)N[C@@H](CCCNC(=N)N)C(=O)NC3(C(N)=O)CCCC3)CCCC2)CCCC1 [Ac5c peptide] (5FAM-GRR[Ac5c]RR[Ac5c]RR[Ac5c]-NH2) | ~80 | ~80 | increased cellular uptake from 2 to 6 h incubations and this was maintained after 24 h incubation |  | higher than that of Arg peptide | prolonged cell-penetrating ability | higher than that of Arg peptide | higher than that of Arg peptide | the best
